Converted amounts (≈) assume the structure as drawn. Records with an inconclusive call do not appear. The source made the active and inactive calls. No rule for the calls is given here.
system: M. tuberculosis H37Rv growth inhibition; experiment: Confirmatory growth inhibition assay against Mycobacterium tuberculosis H37Rv, potency (AID 1949);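 also: bacteria grown 7 days with compound before Alamar blue readout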

SMILES | IC50
CCCc1ccc(OC(=O)c2cc3ccccc3oc2=O)cc1 | 22.4 µg/mL (≈ 72.5 µM)
Cc1ccc(-c2csc3ncn(C(C)C(=O)OCc4ccccc4Cl)c(=O)c23)cc1 (stereo unspecified) | 0.74 µg/mL (≈ 1.69 µM)
COC(=O)CSc1[nH]c2ccc(Br)cc2c1[N+](=O)[O-] | > 50 µg/mL (inactive)
Cc1cc(C)nc(Nc2ccc(N3CCCC3)cc2)n1 | 9.69 µg/mL (≈ 36.1 µM)
O=C(Oc1cccc2cccnc12)c1ccco1 | 0.75 µg/mL (≈ 3.14 µM)
CC(C(=O)Oc1cccc2cccnc12)N1C(=O)c2ccccc2C1=O (stereo unspecified) | 4.4 µg/mL (≈ 12.7 µM)
Cc1cccc(COc2ccc(/C=C/[N+](=O)[O-])cc2)c1 | 21.4 µg/mL (≈ 79.5 µM)
CC(=O)Oc1ccccc1C(=O)OCc1ccc2ccccc2c1 | 11.7 µg/mL (≈ 36.5 µM)
CC(C)(C)c1ccc(C(=O)NC(=S)N2CCCC2)cc1 | 1.35 µg/mL (≈ 4.65 µM)
O=C(CCC(=O)OCc1cccc(C(=O)Oc2ccccc2)c1)Nc1cccc2ccccc12 | 12.6 µg/mL (≈ 27.8 µM)
COc1cccc(OC)c1C(=O)Nc1ccc(Cl)c(-c2nc3ccccc3s2)c1 | 1.49 µg/mL (≈ 3.51 µM)
O=C1c2ccccc2C2=Nc3cc(Cl)ccc3OC12O (stereo unspecified) | 5.5 µg/mL (≈ 19.3 µM)
CCN(CC)c1cccc(Oc2nc([N+](=O)[O-])nn2C)c1 | 1.81 µg/mL (≈ 6.21 µM)
COC(C)(C)C#CC(=O)c1cccc2ccccc12 | 2.78 µg/mL (≈ 11 µM)
Cc1ccccc1N1CCN(CC(O)COc2ccc(C(=O)c3ccccc3)cc2)CC1 (stereo unspecified) | 2.81 µg/mL (≈ 6.53 µM)
COc1cc2ccccc2cc1C(=O)NCCC12CC3CC(CC(C3)C1)C2 | 3.27 µg/mL (≈ 9 µM)
Cc1ccc(Cl)cc1N1CCN(CC(O)COc2ccc(C(=O)c3ccccc3)cc2)CC1 (stereo unspecified) | 2.94 µg/mL (≈ 6.32 µM)
COc1ccccc1C1CC(=O)C2=C(C1)NC(C)=C(C(=O)OC1CCCC1)C2c1ccc(O)cc1 (stereo unspecified) | 4.74 µg/mL (≈ 10 µM)
COc1cc(CNCCO)cc(Cl)c1OCc1ccc(Cl)cc1Cl | 5.72 µg/mL (≈ 14.6 µM)
O=C(Nc1ccc(OC(F)(F)C(F)F)cc1)Nc1cccc(Cl)c1 | 0.75 µg/mL (≈ 2.07 µM)
CC1=Nc2ccccc2N=C(N)C1c1ccc(Cl)cc1 (stereo unspecified) | 15 µg/mL (≈ 52.8 µM)
O=C(Oc1cccc2cccnc12)c1cc2ccccc2oc1=O | 3.06 µg/mL (≈ 9.64 µM)
CCOC(=O)c1cc(CC)sc1NC(=O)c1cc2ccccc2oc1=O | 0.38 µg/mL (≈ 1.02 µM)
O=C(Oc1ccc(Cl)c2cccnc12)c1cccs1 | 0.37 µg/mL (≈ 1.28 µM)
COc1ccc(C)cc1NC(=O)c1ccc(CN2CCC(Cc3ccccc3)CC2)cc1 | 3.36 µg/mL (≈ 7.84 µM)
CC(CCc1ccccc1)Nc1cc(N2CCNCC2)ccc1[N+](=O)[O-] (stereo unspecified) | > 50 µg/mL (inactive)

SMILES | IC50
CCc1cc2c(=O)c(Oc3ccc(-c4ccccc4)cc3)coc2cc1OC(C)=O | 5.89 µg/mL (≈ 14.7 µM)
CCCCn1c(=N)n(CC(O)COc2cccc(C)c2)c2ccccc21 (stereo unspecified) | 6.05 µg/mL (≈ 17.1 µM)
Nc1ccccc1NCCOc1ccccc1 | 1.01 µg/mL (≈ 4.42 µM)
O=C(Oc1c(Cl)cc(Cl)c2cccnc12)c1cccc([N+](=O)[O-])c1 | 6.13 µg/mL (≈ 16.9 µM)
CCOC(=O)c1ccc(NC(=S)NC(NC(=O)c2ccc(Br)cc2)C(Cl)(Cl)Cl)cc1 (stereo unspecified) | 6.15 µg/mL (≈ 11.1 µM)
COc1ccc2nc(C)cc(Nc3ccccc3O)c2c1 | 8.28 µg/mL (≈ 29.5 µM)
CCn1cc(C(=O)O)c(=O)c2cc(F)c(N3CCN(C(=S)Nc4ccc(Cl)cc4)CC3)cc21 | 24.1 µg/mL (≈ 49.3 µM)
CCOC(=O)COc1ccc(S(=O)(=O)N2CCc3ccccc3C2)cc1 | 0.64 µg/mL (≈ 1.7 µM)
CC(C)(C)NCCCOc1ccc(Cl)cc1C(C)(C)C | 23.3 µg/mL (≈ 78.2 µM)
Clc1cccc(Nc2nc(NCc3ccco3)c3ccccc3n2)c1 | 1.05 µg/mL (≈ 2.99 µM)
O=C(Nc1ccc(-c2nc3ccccc3c(=O)o2)cc1)C(c1ccccc1)c1ccccc1 | > 50 µg/mL (inactive)
OCc1nc2ccccc2n1CC(O)COc1ccc(OCc2ccccc2)cc1 (stereo unspecified) | 4.83 µg/mL (≈ 11.9 µM)
O=C(Oc1cccc2cccnc12)c1ccccc1F | 2.7 µg/mL (≈ 10.1 µM)
CCC(=O)NC(=S)Nc1ccc(C(C)C)cc1 | < 0.1 µg/mL
CC1(C)C=Cc2c(nc3ccccc3c2NCc2ccccc2)C1 | 1.47 µg/mL (≈ 4.68 µM)
COc1ccc(-c2oc3ncn(CCCn4ccnc4)c(=N)c3c2-c2ccc(OC)cc2)cc1 | 3.79 µg/mL (≈ 8.32 µM)
N#Cc1ccc(-c2ccc(OCC(N)=O)cc2)cc1 | < 0.1 µg/mL
CCC(Oc1ccc2c(-c3ccccc3)cc(=O)oc2c1)C(=O)OCc1ccccc1 (stereo unspecified) | 3.8 µg/mL (≈ 9.17 µM)
COC(=O)COc1ccc(Br)cc1C=O | 12.4 µg/mL (≈ 45.5 µM)
Cc1cccc(N2CCN(c3ncnc4sc5c(c34)CCCC5)CC2)n1 | 2.26 µg/mL (≈ 6.18 µM)
CCCNC(=S)NC(=O)c1ccc(C(C)(C)C)cc1 | 17 µg/mL (≈ 61 µM)
O=C(CSc1ccccc1)Nc1ccc(-c2nc3ccccc3c(=O)o2)cc1 | 0.47 µg/mL (≈ 1.21 µM)
Cc1ccc2nc(SCc3ccc4ccccc4c3)[nH]c2c1 | 11 µg/mL (≈ 36 µM)
N#C/C(=C\C=C\c1ccco1)c1nc2c(s1)CCCC2 | 9.33 µg/mL (≈ 33 µM)
CCC(C(=O)Nc1ccc(CC(=O)OC)cc1)c1ccccc1 (stereo unspecified) | 0.69 µg/mL (≈ 2.22 µM)

From PubChem BioAssay AID1949 (Southern Research Institute, 2009)
